Experiments:
Cytochrome P450 2D6 = Cytochrome P450 2D6 (Homo sapiens, UniProt P10635); test: Inhibition of CYP2D6 (unknown origin) after 10 mins; format: ADME
Cytochrome P450 3A4 = Cytochrome P450 3A4 (Homo sapiens, UniProt P08684); test: Inhibition of CYP3A4 (unknown origin) after 5 mins; format: ADME
[1] = Metabolic stability in human liver microsomes at 1 uM after 30 mins; format: ADME; details: read-out: Stability
[2] = Metabolic stability in rat liver microsomes at 1 uM after 30 mins; format: ADME; details: read-out: Stability
Gamma-secretase = test: Modulation of gamma-secretase in HEK293 cells expressing guinea pig Swedish mutant SFV-APP695sw assessed as inhibition of amyloid beta-42 production after 16 to 18 hrs by HTRF assay; format: cell-based, Homo sapiens

Chain of Cytochrome P450 3A4 (P08684 whole entry): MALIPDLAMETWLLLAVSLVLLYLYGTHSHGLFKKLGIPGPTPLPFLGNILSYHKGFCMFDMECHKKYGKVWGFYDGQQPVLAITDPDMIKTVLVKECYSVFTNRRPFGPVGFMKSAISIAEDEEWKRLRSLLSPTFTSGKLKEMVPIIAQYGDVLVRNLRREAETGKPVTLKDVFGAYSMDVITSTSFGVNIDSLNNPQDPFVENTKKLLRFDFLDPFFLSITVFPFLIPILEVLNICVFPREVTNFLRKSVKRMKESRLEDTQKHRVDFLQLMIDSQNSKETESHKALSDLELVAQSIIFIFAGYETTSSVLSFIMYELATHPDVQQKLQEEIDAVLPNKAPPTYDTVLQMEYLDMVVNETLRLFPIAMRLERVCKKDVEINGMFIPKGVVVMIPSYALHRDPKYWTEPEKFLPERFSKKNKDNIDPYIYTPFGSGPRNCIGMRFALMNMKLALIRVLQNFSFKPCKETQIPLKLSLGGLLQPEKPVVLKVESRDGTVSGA
Chain of Cytochrome P450 2D6 (P10635 whole entry): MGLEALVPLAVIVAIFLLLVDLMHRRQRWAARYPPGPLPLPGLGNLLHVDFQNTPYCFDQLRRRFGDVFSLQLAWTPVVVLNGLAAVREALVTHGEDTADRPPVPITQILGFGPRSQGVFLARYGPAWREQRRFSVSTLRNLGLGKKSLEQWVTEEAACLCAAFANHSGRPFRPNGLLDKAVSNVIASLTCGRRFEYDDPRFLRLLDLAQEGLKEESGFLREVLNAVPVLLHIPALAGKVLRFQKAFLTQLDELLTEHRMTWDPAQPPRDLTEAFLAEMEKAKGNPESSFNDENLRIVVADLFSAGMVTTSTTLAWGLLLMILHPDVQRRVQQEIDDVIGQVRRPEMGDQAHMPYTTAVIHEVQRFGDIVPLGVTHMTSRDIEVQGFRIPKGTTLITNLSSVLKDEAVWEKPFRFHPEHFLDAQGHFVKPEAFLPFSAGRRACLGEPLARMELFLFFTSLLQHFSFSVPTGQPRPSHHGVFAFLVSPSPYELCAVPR

SMILES	IC50 (Gamma-secretase)	further results
Cc1noc(-c2ccc(NS(=O)(=O)c3cc(Cl)cc(Cl)c3)cc2)n1	> 10000 nM	IC50 (Cytochrome P450 2D6): > 27000 nM; IC50 (Cytochrome P450 3A4): > 27000 nM; microsomal CLint at 1 µM [1]: > 399 µL/min/mg; microsomal CLint at 1 µM [2]: > 399 µL/min/mg
Cc1cc(-c2ccc(NC(=O)C(O)c3cc(C(F)(F)F)cc(C(F)(F)F)c3)cc2)ccn1 (centres undefined)	2130 nM	
Cc1cc(-c2ccc(NC(=O)C(CC(C)C)c3cc(C(F)(F)F)cc(C(F)(F)F)c3)cc2)ccn1 (centres undefined)	820 nM	
Cc1cc(-c2ccc(NC(=O)C(C)c3cccc(-c4ccc(N(C)C)nc4)c3)cc2)ccn1 (centres undefined)	170 nM	
Cc1cc(-c2ccc(NC(=O)C(C)c3cccc(-c4cnc(N5CCOCC5)nc4)c3)cc2)ccn1 (centres undefined)	650 nM	
Cc1cc(-c2ccc(NC(=O)C(C)c3cccc(-c4ccc(N(C)C)cc4)c3)cc2)ccn1 (centres undefined)	120 nM	
COc1cc(NS(=O)(=O)c2cc(C(F)(F)F)cc(C(F)(F)F)c2)ccc1-c1ccnc(C)c1	530 nM	
O=S(=O)(Nc1ccc(-c2ccco2)cc1)c1cc(Cl)cc(Cl)c1	> 10000 nM	IC50 (Cytochrome P450 2D6): > 27000 nM; microsomal CLint at 1 µM [1]: > 399 µL/min/mg; microsomal CLint at 1 µM [2]: > 399 µL/min/mg
COc1cc(C(=O)NCCc2ccc(Cl)cc2)ccc1-n1cnc(C)c1	420 nM	
Cc1cc(-c2ccc(NC(=O)[C@H](C)c3cccc(-c4ccc(N5CCOCC5)cc4)c3)cc2)ccn1	31 nM	
CNc1ccc(-c2cccc(C(C)C(=O)Nc3ccc(-c4ccnc(C)c4)cc3)c2)cn1 (centres undefined)	930 nM	
Cc1cc(-c2ccc(C(=O)NC(C)c3cc(C(F)(F)F)cc(C(F)(F)F)c3)cc2)ccn1 (centres undefined)	> 10000 nM	
Cc1cccc(C(CC(C)C)C(=O)Nc2ccc(-c3ccnc(C)c3)cc2)c1 (single isomer, unassigned; isomer 1)	180 nM	
Cc1cccc(C(CC(C)C)C(=O)Nc2ccc(-c3ccnc(C)c3)cc2)c1 (stereo in doubt; 50)	170 nM	
Cc1cc(-c2ccc(NC(=O)C(C)c3cccc(-c4ccccn4)c3)cc2)ccn1 (centres undefined)	> 10000 nM	
Cc1cc(-c2ccc(NC(=O)C(C)c3cccc(-c4ccncc4)c3)cc2)ccn1 (centres undefined)	1200 nM	
Cc1cc(-c2ccc(NC(=O)C(C)c3cc(C(F)(F)F)cc(C(F)(F)F)n3)cc2)ccn1 (centres undefined)	> 10000 nM	
Cc1cc(-c2cccc(NC(=O)Cc3cc(C(F)(F)F)cc(C(F)(F)F)c3)c2)ccn1	> 10000 nM	
COc1cc(NS(=O)(=O)c2ccc(Cl)c(Cl)c2)ccc1-n1cnc(C)c1	900 nM	
Cc1cc(-c2ccc(C(=O)NCCc3ccc(Cl)cc3)cc2)ccn1	2120 nM	
Cc1cc(-c2ccc(NC(=O)C(C)c3cccc(-c4ccc(NC(C)C)nc4)c3)cc2)ccn1 (centres undefined)	180 nM	

SMILES	IC50 (Gamma-secretase)	further results
Cc1cc(-c2ccc(NC(=O)C(C)c3cccc(-c4cccnc4)c3)cc2)ccn1 (centres undefined)	1290 nM	
Cc1nccn1-c1ccc(NS(=O)(=O)c2cc(Cl)cc(Cl)c2)cc1	9400 nM	IC50 (Cytochrome P450 2D6): > 27000 nM; IC50 (Cytochrome P450 3A4): > 27000 nM; microsomal CLint at 1 µM [1]: 22 µL/min/mg; microsomal CLint at 1 µM [2]: 113 µL/min/mg
Cc1cccc(C(CC(C)C)C(=O)Nc2ccc(-c3ccnc(C)c3)cc2)c1 (single isomer, unassigned; isomer 2)	1380 nM	
Cc1cc(-c2ccc(NC(=O)C(C)c3cccc(-c4ccc(N5CCOCC5)nc4)c3)cc2)ccn1 (centres undefined)	150 nM	
Cc1cc(-c2ccc(NC(=O)C(C)(C)c3cc(C(F)(F)F)cc(C(F)(F)F)c3)cc2)ccn1	> 10000 nM	
Cc1cc(-c2ccc(NC(=O)C(C)c3cccc(-c4ccccc4)c3)cc2)ccn1 (centres undefined)	660 nM	
O=S(=O)(Nc1ccc(-c2cc[nH]n2)cc1)c1cc(Cl)cc(Cl)c1	> 10000 nM	IC50 (Cytochrome P450 2D6): 11800 nM; IC50 (Cytochrome P450 3A4): 15300 nM; microsomal CLint at 1 µM [1]: 384 µL/min/mg; microsomal CLint at 1 µM [2]: > 399 µL/min/mg
Cc1cc(-c2ccc(NC(=O)C(C)c3cccc(N4CCOCC4)c3)cc2)ccn1 (centres undefined)	4800 nM	
CCCC(C(=O)Nc1ccc(-c2ccnc(C)c2)cc1)c1cccc(C)c1 (centres undefined)	540 nM	
Cc1cc(-c2ccc(NC(=O)Cc3cc(C(F)(F)F)cc(C(F)(F)F)c3)nc2)ccn1	> 10000 nM	
COc1ccc(-c2cccc(C(C)C(=O)Nc3ccc(-c4ccnc(C)c4)cc3)c2)cc1 (centres undefined)	150 nM	
Cc1cc(-c2ccc(NC(=O)Cc3cc(C(F)(F)F)cc(C(F)(F)F)c3)cn2)ccn1	1350 nM	
Cc1cc(-c2ccc(NC(=O)C(C)c3cccc(N4CCN(c5ccccc5)CC4)c3)cc2)ccn1 (centres undefined)	160 nM	
Cc1cc(-c2ccc(NC(=O)C(C)c3cccc(-c4ccc(C(=O)O)cc4)c3)cc2)ccn1 (centres undefined)	> 10000 nM	
Cc1cc(-c2ccc(N(C)C(=O)Cc3cc(C(F)(F)F)cc(C(F)(F)F)c3)cc2)ccn1	> 10000 nM	
COc1cc(NS(=O)(=O)c2cc(Cl)cc(Cl)c2)ccc1-n1cnc(C)c1	1060 nM	
Cc1cc(-c2ccc(NC(=O)C(C)c3cccc(-c4ccccc4C#N)c3)cc2)ccn1 (centres undefined)	570 nM	
COc1cc(C(=O)NCCC(c2ccccc2)c2ccccc2)ccc1-n1cnc(C)c1	320 nM	microsomal CLint at 1 µM [2]: > 399 µL/min/mg
Cc1cc(-c2ccc(NC(=O)C(C)c3cccc(-c4ccc(N5CCOCC5)cc4)c3)cc2)ccn1 (centres undefined)	70 nM	
CCC(C(=O)Nc1ccc(-c2ccnc(C)c2)cc1)c1cccc(C)c1 (centres undefined)	1050 nM	
COc1cc(NC(=O)Cc2cc(C(F)(F)F)cc(C(F)(F)F)c2)ccc1-n1cnc(C)c1	1450 nM	

Now from value to molecule, other results behind:

IC50 (Gamma-secretase)	SMILES	further results
140 nM	CC(=O)c1ccc(-c2cccc(C(C)C(=O)Nc3ccc(-c4ccnc(C)c4)cc3)c2)cc1 (centres undefined)	
> 10000 nM	O=S(=O)(Nc1ccc(-c2cncnc2)cc1)c1cc(Cl)cc(Cl)c1	IC50 (Cytochrome P450 2D6): 7200 nM; IC50 (Cytochrome P450 3A4): 3500 nM; microsomal CLint at 1 µM [1]: 45 µL/min/mg; microsomal CLint at 1 µM [2]: > 399 µL/min/mg
220 nM	Cc1cc(-c2ccc(NC(=O)C(C)c3cccc(-c4cccc(C#N)c4)c3)cc2)ccn1 (centres undefined)	
280 nM	Cc1cc(-c2ccc(NS(=O)(=O)c3cc(C(F)(F)F)cc(C(F)(F)F)c3)cc2)ccn1	IC50 (Cytochrome P450 2D6): 2000 nM; IC50 (Cytochrome P450 3A4): > 27000 nM; microsomal CLint at 1 µM [1]: 399 µL/min/mg; microsomal CLint at 1 µM [2]: 290 µL/min/mg
> 10000 nM	O=S(=O)(Nc1ccc(-c2ncccn2)cc1)c1cc(Cl)cc(Cl)c1	IC50 (Cytochrome P450 2D6): > 27000 nM; IC50 (Cytochrome P450 3A4): 16200 nM; microsomal CLint at 1 µM [1]: > 399 µL/min/mg; microsomal CLint at 1 µM [2]: > 399 µL/min/mg
> 10000 nM	Cc1cccc(C(CCCO)C(=O)Nc2ccc(-c3ccnc(C)c3)cc2)c1 (centres undefined)	
70 nM	Cc1cc(-c2ccc(NC(=O)[C@@H](C)c3cccc(-c4ccc(N5CCOCC5)cc4)c3)cc2)ccn1	
1110 nM	Cc1cc(-c2ccc(NC(=O)Nc3cc(C(F)(F)F)cc(C(F)(F)F)c3)cc2)ccn1	
7000 nM	Cc1cc(-c2ccc(NC(=O)C(C)c3cc(C#N)cc(C(F)(F)F)c3)cc2)ccn1 (centres undefined)	
> 10000 nM	Cc1cc(-c2ccc(NC(=O)C(C)c3cccc(N4CCN(C)CC4)c3)cc2)ccn1 (centres undefined)	
260 nM	Cc1cc(-c2ccc(NC(=O)C(C)c3cccc(-c4ccc(C(=O)N(C)C)cc4)c3)cc2)ccn1 (centres undefined)	
570 nM	Cc1cc(C)cc(C(C)C(=O)Nc2ccc(-c3ccnc(C)c3)cc2)c1 (centres undefined)	
490 nM	CCCCC(C(=O)Nc1ccc(-c2ccnc(C)c2)cc1)c1cccc(C)c1 (centres undefined)	
2780 nM	Cc1cccc(CC(=O)Nc2ccc(-c3ccnc(C)c3)cc2)c1	
1530 nM	Cc1cc(-c2ccc(/C=C3\CCCN([C@@H](C)c4ccc(F)cc4)C3=O)cc2)ccn1	
540 nM	Cc1cccc(C(C)C(=O)Nc2ccc(-c3ccnc(C)c3)cc2)c1 (centres undefined)	
6000 nM	Cc1cc(-c2ccc(NC(=O)C(C)c3ccccc3)cc2)ccn1 (centres undefined)	
500 nM	COc1cc(NC(=O)[C@H](C)c2cc(C(F)(F)F)cc(C(F)(F)F)c2)ccc1-c1ccnc(C)c1	
250 nM	Cc1cc(-c2ccc(NC(=O)C(C)c3cccc(-c4ccc(C#N)cc4)c3)cc2)ccn1 (centres undefined)	

Source: ChEMBL document CHEMBL3085750, “Discovery of 2-methylpyridine-based biaryl amides as γ-secretase modulators for the treatment of Alzheimer's disease” (Bioorg Med Chem Lett, 2013)
